{
  "source": "ChEMBL document CHEMBL1201862",
  "about": "“PubChem BioAssay data set” (2004)",
  "test_in_all_cases": "NCI tumour cell line growth inhibition, 48 h",
  "key": {"786-0": {"system": "786-0"}, "A498": {"system": "A498"}, "A549": {"system": "A549"}, "ACHN": {"system": "ACHN"}, "CAKI-1": {"system": "CAKI-1"}, "CCRF-CEM": {"system": "CCRF-CEM"}, "COLO 205": {"system": "COLO 205"}, "DU-145": {"system": "DU-145"}, "EKVX": {"system": "EKVX"}, "HCC 2998": {"system": "HCC 2998"}, "HCT-116": {"system": "HCT-116"}, "HCT-15": {"system": "HCT-15"}, "HL-60": {"system": "HL-60"}, "HOP-62": {"system": "HOP-62"}, "HT-29": {"system": "HT-29"}, "Hs-578T": {"system": "Hs-578T"}, "IGROV-1": {"system": "IGROV-1"}, "K562": {"system": "K562"}, "KM12": {"system": "KM12"}, "LOX IMVI": {"system": "LOX IMVI"}, "M14": {"system": "M14"}, "MCF7": {"system": "MCF7"}, "MDA-MB-231": {"system": "MDA-MB-231"}, "MDA-MB-435": {"system": "MDA-MB-435"}, "MDA-N": {"system": "MDA-N"}, "MOLT-4": {"system": "MOLT-4"}, "Malme-3M": {"system": "Malme-3M"}, "NCI-H226": {"system": "NCI-H226"}, "NCI-H23": {"system": "NCI-H23"}, "NCI-H460": {"system": "NCI-H460"}, "NCI-H522": {"system": "NCI-H522"}, "NCI/ADR-RES": {"system": "NCI/ADR-RES"}, "OVCAR-3": {"system": "OVCAR-3"}, "OVCAR-4": {"system": "OVCAR-4"}, "OVCAR-5": {"system": "OVCAR-5"}, "OVCAR-8": {"system": "OVCAR-8"}, "PC-3": {"system": "PC-3"}, "RPMI-8226": {"system": "RPMI-8226"}, "RXF 393": {"system": "RXF 393"}, "SF-268": {"system": "SF-268"}, "SF-295": {"system": "SF-295"}, "SF-539": {"system": "SF-539"}, "SK-MEL-28": {"system": "SK-MEL-28"}, "SK-MEL-2": {"system": "SK-MEL-2"}, "SK-MEL-5": {"system": "SK-MEL-5"}, "SK-OV-3": {"system": "SK-OV-3"}, "SN12C": {"system": "SN12C"}, "SNB-19": {"system": "SNB-19"}, "SNB-75": {"system": "SNB-75"}, "SR": {"system": "SR"}, "SW-620": {"system": "SW-620"}, "T47D": {"system": "T47D"}, "TK-10": {"system": "TK-10"}, "U-251": {"system": "U-251"}, "UACC-257": {"system": "UACC-257"}, "UACC-62": {"system": "UACC-62"}, "UO-31": {"system": "UO-31"}},
  "note": "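1) Cells in 96-well plates. 2) Compound, 48 h, 5 concentrations. 3) Linear interpolation between surrounding doses. 4) Unreached endpoint = highest concentration. Abbreviation: GI50, concentration required for 50% inhibition of growth.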 The source made the active and inactive calls. No stated cut-off is given here; in the data, active = GI50 up to about 1.1 µM and inactive = higher.",
  "data": [
    {"smiles": "N#CCC12CC=CCC1=C(O)C(=O)c1ccc(O)cc12", "note": "(configuration not stated)", "values": [
      {"measurement": "GI50", "setting": "786-0", "value": "> 100 µM (inactive)"},
      {"measurement": "GI50", "setting": "A498", "value": "> 100 µM (inactive)"},
      {"measurement": "GI50", "setting": "A549", "value": "> 100 µM (inactive)"},
      {"measurement": "GI50", "setting": "ACHN", "value": "> 100 µM (inactive)"},
      {"measurement": "GI50", "setting": "CAKI-1", "value": "> 100 µM (inactive)"},
      {"measurement": "GI50", "setting": "CCRF-CEM", "value": "> 100 µM (inactive)"},
      {"measurement": "GI50", "setting": "COLO 205", "value": "> 100 µM (inactive)"},
      {"measurement": "GI50", "setting": "DU-145", "value": "> 100 µM (inactive)"},
      {"measurement": "GI50", "setting": "EKVX", "value": "> 100 µM (inactive)"},
      {"measurement": "GI50", "setting": "HCC 2998", "value": "> 100 µM (inactive)"},
      {"measurement": "GI50", "setting": "HCT-116", "value": "> 100 µM (inactive)"},
      {"measurement": "GI50", "setting": "HCT-15", "value": "> 100", "unit": "µM"},
      {"measurement": "GI50", "setting": "HL-60", "value": "> 100 µM (inactive)"},
      {"measurement": "GI50", "setting": "HOP-62", "value": "> 100 µM (inactive)"},
      {"measurement": "GI50", "setting": "HT-29", "value": "> 100 µM (inactive)"},
      {"measurement": "GI50", "setting": "Hs-578T", "value": "58.1 µM (inactive)"},
      {"measurement": "GI50", "setting": "IGROV-1", "value": "> 100 µM (inactive)"},
      {"measurement": "GI50", "setting": "K562", "value": "> 100 µM (inactive)"},
      {"measurement": "GI50", "setting": "KM12", "value": "> 100 µM (inactive)"},
      {"measurement": "GI50", "setting": "LOX IMVI", "value": "> 100 µM (inactive)"},
      {"measurement": "GI50", "setting": "M14", "value": "55.7 µM (inactive)"},
      {"measurement": "GI50", "setting": "MCF7", "value": "> 100 µM (inactive)"},
      {"measurement": "GI50", "setting": "MDA-MB-231", "value": "> 100 µM (inactive)"},
      {"measurement": "GI50", "setting": "MDA-MB-435", "value": "> 100 µM (inactive)"},
      {"measurement": "GI50", "setting": "MDA-N", "value": "> 100 µM (inactive)"},
      {"measurement": "GI50", "setting": "MOLT-4", "value": "> 100 µM (inactive)"},
      {"measurement": "GI50", "setting": "Malme-3M", "value": "> 100 µM (inactive)"},
      {"measurement": "GI50", "setting": "NCI-H226", "value": "68.5 µM (inactive)"},
      {"measurement": "GI50", "setting": "NCI-H23", "value": "> 100 µM (inactive)"},
      {"measurement": "GI50", "setting": "NCI-H460", "value": "> 100 µM (inactive)"},
      {"measurement": "GI50", "setting": "NCI-H522", "value": "> 100 µM (inactive)"},
      {"measurement": "GI50", "setting": "NCI/ADR-RES", "value": "> 100 µM (inactive)"},
      {"measurement": "GI50", "setting": "OVCAR-3", "value": "> 100 µM (inactive)"},
      {"measurement": "GI50", "setting": "OVCAR-4", "value": "52 µM (inactive)"},
      {"measurement": "GI50", "setting": "OVCAR-5", "value": "> 100 µM (inactive)"},
      {"measurement": "GI50", "setting": "OVCAR-8", "value": "> 100 µM (inactive)"},
      {"measurement": "GI50", "setting": "PC-3", "value": "> 100 µM (inactive)"},
      {"measurement": "GI50", "setting": "RPMI-8226", "value": "> 100 µM (inactive)"},
      {"measurement": "GI50", "setting": "RXF 393", "value": "> 100 µM (inactive)"},
      {"measurement": "GI50", "setting": "SF-268", "value": "> 100 µM (inactive)"},
      {"measurement": "GI50", "setting": "SF-295", "value": "> 100 µM (inactive)"},
      {"measurement": "GI50", "setting": "SF-539", "value": "> 100 µM (inactive)"},
      {"measurement": "GI50", "setting": "SK-MEL-28", "value": "> 100 µM (inactive)"},
      {"measurement": "GI50", "setting": "SK-MEL-2", "value": "> 100 µM (inactive)"},
      {"measurement": "GI50", "setting": "SK-MEL-5", "value": "> 100 µM (inactive)"},
      {"measurement": "GI50", "setting": "SK-OV-3", "value": "> 100 µM (inactive)"},
      {"measurement": "GI50", "setting": "SN12C", "value": "> 100 µM (inactive)"},
      {"measurement": "GI50", "setting": "SNB-19", "value": "> 100 µM (inactive)"},
      {"measurement": "GI50", "setting": "SNB-75", "value": "67.6 µM (inactive)"},
      {"measurement": "GI50", "setting": "SR", "value": "90.8 µM (inactive)"},
      {"measurement": "GI50", "setting": "SW-620", "value": "> 100 µM (inactive)"},
      {"measurement": "GI50", "setting": "T47D", "value": "> 100 µM (inactive)"},
      {"measurement": "GI50", "setting": "TK-10", "value": "> 100 µM (inactive)"},
      {"measurement": "GI50", "setting": "U-251", "value": "> 100 µM (inactive)"},
      {"measurement": "GI50", "setting": "UACC-257", "value": "> 100 µM (inactive)"},
      {"measurement": "GI50", "setting": "UACC-62", "value": "> 100 µM (inactive)"},
      {"measurement": "GI50", "setting": "UO-31", "value": "48.6 µM (inactive)"}
    ]}
  ]
}
